Patent US20090203694A1, “INHIBITORS OF UNDECAPRENYL PYROPHOSPHATE SYNTHASE” (priority 2006, published 2009)

molecular target: T1, Streptococcus pneumonia UPPS (Streptococcus pneumoniae serotype 4, UniProt Q97SR4); experiment: Determination of binding to UPPS (inorganic phosphate release, Biomol Green); assay type: biochemical; settings: FPP 3 μM, IPP 16 μM; 20 minutes preincubation with compound
T1 construct: His-tag (N)
T1 sequence (Q97SR4 1-252): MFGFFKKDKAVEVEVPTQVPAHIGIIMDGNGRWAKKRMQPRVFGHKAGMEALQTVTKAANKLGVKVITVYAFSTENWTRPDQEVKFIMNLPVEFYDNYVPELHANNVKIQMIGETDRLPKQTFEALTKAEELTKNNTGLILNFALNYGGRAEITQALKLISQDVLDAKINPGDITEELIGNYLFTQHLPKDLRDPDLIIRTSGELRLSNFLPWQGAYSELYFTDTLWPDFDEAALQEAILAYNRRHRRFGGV
Description: The ability of several of the compounds described herein to bind to UPPS was also tested as follows.
Streptococcus pneumonia UPPS was cloned into pET-15b, expressed and purified as an N-terminal His-tag fusion using affinity chromatography. The working stock of UPPS was prepared by mixing the purified enzyme with liposome made from E. coli total lipids extract (Avanti Polar Lipis, Inc., Alabaster, Ala.). The substrates FPP and IPP and inorganic pyrophosphatase were purchased from Sigma. Biomol Green reagent was from Biomol International (Plymouth Meeting, Pa.). All other chemicals were from Sigma at the highest grade.
For testing a compound, UPPS was first incubated with the compound at desired concentrations for 20 minutes in the UPPS reaction buffer that contained 100 mM Tris-HCl, pH 7.3, 50 mM KCl, 1 mM MgCl2, 0.01% Triton X-100, and 20 μg/mL BSA. The reaction was then initiated by the addition of a mixture of FPP, IPP, and E. coli […] made in the same UPPS reaction buffer. The final concentrations for FPP and IPP were 3 μM and 16 μM, respectively. The inorganic phosphate generated in the reactions was then quantified with Biomol Green reagent, which was then used to determine the rate of the reaction and the inhibitory activity of the compound.
For example, the results of the binding assay for several compounds are shown the table below: […]

Question: How did the IC50 turn out when `O=C(Nc1ccc(C2CCCCC2)cc1)C1=C(O)CC(C2CCCCC2)NC1=O` (centres unmarked) [compound 185] was run?
Answer: 0.01 to 10 µM

Question: For `O=C(Nc1ccc(Oc2ccccc2)cc1)C1=C(O)CC(C2CCCCC2)NC1=O` (centres unmarked) [compound 189], which IC50 is on record?
Answer: 0.01 to 10 µM

Question: How did the IC50 turn out when `CC(C)CC1NC(=O)C(C(=O)Nc2ccc(Oc3nc4ccccc4s3)cc2)=C1O` (centres unmarked) [compound 126] was run?
Answer: 0.01 to 10 µM

Question: `Cc1ccc2nc(-c3ccc(NC(=O)C4=C(O)C(Cc5ccccc5)NC4=O)cc3)sc2c1` (centres unmarked) [compound 4] was tested. Which IC50 did it give?
Answer: 10 to 50 µM

Question: How did the IC50 turn out when `CCN1CCN(c2ccc(NC(=O)C3=C(O)C(CC(C)C)NC3=O)cc2)CC1` (centres unmarked) [compound 148] was run?
Answer: 0.01 to 10 µM

Question: For `O=C(Nc1ccc(C2CCCCC2)cc1)C1=C(O)C(c2ccccc2)NC1=O` (centres unmarked) [compound 11], which IC50 is on record?
Answer: 0.01 to 10 µM

Question: How did the IC50 turn out when `CCCCCCOc1ccc(NC(=O)C2=C(O)C(CC(C)C)NC2=O)cc1` (centres unmarked) [compound 52] was run?
Answer: 0.01 to 10 µM

Question: How did the IC50 turn out when `CCC1C(O)=C(C(=O)Nc2ccc(C3CCCCC3)cc2)C(=O)N1C` (centres unmarked) [compound 15] was run?
Answer: 10 to 50 µM

Question: Which IC50 does the source give for `O=C(Nc1ccc(-c2ccccc2)cc1)C1=C(O)C(Cc2c[nH]cn2)NC1=O` (centres unmarked) [compound 113] here?
Answer: 0.01 to 10 µM

Question: Which IC50 does the source give for `CC(C)CC1CC(O)=C(C(=O)Nc2ccc(-n3cccn3)cc2)C(=O)N1` (centres unmarked) [compound 192] here?
Answer: 0.01 to 10 µM

Question: For `O=C(Nc1ccc(Oc2ncc(C(F)(F)F)cc2Cl)cc1)C1=C(O)C(Cc2ccccc2)NC1=O` (centres unmarked) [compound 9], which IC50 is on record?
Answer: 0.01 to 10 µM

Question: How did the IC50 turn out when `O=C(Nc1ccc(-n2cccn2)cc1)C1=C(O)CC(C2CCCCC2)NC1=O` (centres unmarked) [compound 198] was run?
Answer: 0.01 to 10 µM

Question: With `O=C(Nc1ccc(S(=O)(=O)c2ccccc2)cc1)C1=C(O)CC(C2CCCCC2)NC1=O` (centres unmarked) [compound 206] as the molecule, how does the IC50 read?
Answer: 0.01 to 10 µM

Question: With `Cc1ccc2nc(-c3ccc(NC(=O)C4=C(O)C(c5ccccc5)NC4=O)cc3)sc2c1` (centres unmarked) [compound 6] as the molecule, how does the IC50 read?
Answer: 0.01 to 10 µM

Question: With `CC(C)CC1CC(O)=C(C(=O)Nc2ccc(C3CCCCC3)cc2)C(=O)N1` (centres unmarked) [compound 182] as the molecule, how does the IC50 read?
Answer: 0.01 to 10 µM

Question: Which IC50 does the source give for `O=C(Nc1cccc(Oc2ccccc2)c1)C1=C(O)C(CCc2ccccc2)NC1=O` (centres unmarked) [compound 80] here?
Answer: 0.01 to 10 µM

Question: With `O=C(Nc1ccc(N2CCCCC2)cc1)C1=C(O)CC(c2ccccc2)NC1=O` (centres unmarked) [compound 168] as the molecule, how does the IC50 read?
Answer: 0.01 to 10 µM

Question: With `O=C(Nc1ccc(-c2ccccc2)cc1)C1=C(O)C(c2ccccc2)NC1=O` (centres unmarked) [compound 14] as the molecule, how does the IC50 read?
Answer: 0.01 to 10 µM

Question: With `O=C(Nc1ccc(-n2cccn2)cc1)C1=C(O)CC(c2ccccc2)NC1=O` (centres unmarked) [compound 181] as the molecule, how does the IC50 read?
Answer: 0.01 to 10 µM

Question: `N#Cc1ccccc1Oc1cccc(NC(=O)C2=C(O)C(c3ccccc3)NC2=O)c1` (centres unmarked) [compound 8] was tested. Which IC50 did it give?
Answer: 0.01 to 10 µM

Question: Which IC50 does the source give for `COc1ccc(-c2nc(NC(=O)C3=C(O)CC(Cc4ccccc4)NC3=O)nn2-c2ccc(CO)cc2)cc1` (centres unmarked) [compound 177] here?
Answer: 0.01 to 10 µM

Question: For `O=C(Nc1ccc(OC2CCCCC2)cc1)C1=C(O)CC(c2ccccc2)NC1=O` (centres unmarked) [compound 166], which IC50 is on record?
Answer: 0.01 to 10 µM

Question: `O=C(Nc1ccc(-c2ccccc2)cc1)C1=C(O)CC(Cc2ccccc2)NC1=O` (centres unmarked) [compound 187] was tested. Which IC50 did it give?
Answer: 0.01 to 10 µM

Question: How did the IC50 turn out when `CC(C)CC1CC(O)=C(C(=O)Nc2ccc(OC(F)(F)F)cc2)C(=O)N1` (centres unmarked) [compound 183] was run?
Answer: 0.01 to 10 µM

Question: With `O=C(NC1CCCCC1)C1=C(O)C(Cc2ccccc2)NC1=O` (centres unmarked) [compound 23] as the molecule, how does the IC50 read?
Answer: > 50 µM

Question: How did the IC50 turn out when `O=C(Nc1ccc(C2CCCCC2)cc1)C1=C(O)C(c2ccccc2)NC1=O` (centres unmarked) [compound 56] was run?
Answer: 0.01 to 10 µM

Question: How did the IC50 turn out when `O=C(Nc1ccc(N2CCCCC2)cc1)C1=C(O)C(CCc2ccccc2)NC1=O` (centres unmarked) [compound 97] was run?
Answer: 0.01 to 10 µM

Question: Which IC50 does the source give for `CC(C)CC1NC(=O)C(C(=O)Nc2cccc(Oc3ccccc3)c2)=C1O` (centres unmarked) [compound 70] here?
Answer: 0.01 to 10 µM

Question: For `O=C1NCC(CC2CCCCC2)C(O)=C1C(=O)Nc1ccc(-n2ccnc2)cc1` (centres unmarked) [compound 221], which IC50 is on record?
Answer: 0.01 to 10 µM

Question: `COc1ccc(NC(=O)C2=C(O)CC(c3ccccc3)NC2=O)cc1` (centres unmarked) [compound 170] was tested. Which IC50 did it give?
Answer: 0.01 to 10 µM

Question: `O=C(Nc1ccc(CO)cc1)C1=C(O)C(Cc2ccccc2)NC1=O` (centres unmarked) [compound 22] was tested. Which IC50 did it give?
Answer: > 50 µM

Question: With `O=C(NCCSCc1c(Cl)cccc1Cl)C1=C(O)C(Cc2ccccc2)NC1=O` (centres unmarked) [compound 54] as the molecule, how does the IC50 read?
Answer: 10 to 50 µM

Question: `CC1CC(O)=C(C(=O)Nc2ccc(Oc3ccccc3)cc2)C(=O)N1` (centres unmarked) [compound 223] was tested. Which IC50 did it give?
Answer: > 50 µM

Question: How did the IC50 turn out when `CC(C)CC1NC(=O)C(C(=O)Nc2ccc(Nc3ccccc3)cc2)=C1O` (centres unmarked) [compound 104] was run?
Answer: 0.01 to 10 µM

Question: How did the IC50 turn out when `O=C(Nc1ccc(C2CCCCC2)cc1)C1=C(O)C(Cc2ccccc2)NC1=O` (centres unmarked) [compound 5] was run?
Answer: 0.01 to 10 µM

Question: `COc1cccc(NC(=O)C2=C(O)C(c3ccccc3)NC2=O)c1` (centres unmarked) [compound 12] was tested. Which IC50 did it give?
Answer: 0.01 to 10 µM

Question: For `CCCCCCOc1ccc(NC(=O)C2=C(O)C(CCc3ccccc3)NC2=O)cc1` (centres unmarked) [compound 77], which IC50 is on record?
Answer: 0.01 to 10 µM

Question: With `CC(C)CC1NC(=O)C(C(=O)NCc2ccc(-c3cccs3)cc2)=C1O` (centres unmarked) [compound 36] as the molecule, how does the IC50 read?
Answer: 0.01 to 10 µM

Question: For `CC(C)CC1CC(O)=C(C(=O)Nc2ccc(S(=O)(=O)c3ccccc3)cc2)C(=O)N1` (centres unmarked) [compound 202], which IC50 is on record?
Answer: 10 to 50 µM

Question: For `O=C(Nc1ccc(C2CCCCC2)cc1)C1=C(O)CN(Cc2ccccc2)C1=O` [compound 19], which IC50 is on record?
Answer: 0.01 to 10 µM

Question: `O=C(Nc1ccc(Cc2ccccc2)cc1)C1=C(O)C(Cc2ccccc2)NC1=O` (centres unmarked) [compound 10] was tested. Which IC50 did it give?
Answer: 0.01 to 10 µM

Question: With `O=C(Nc1ccc(-c2ccccc2)cc1)C1=C(O)C(c2ccccc2)NC1=O` (centres unmarked) [compound 16] as the molecule, how does the IC50 read?
Answer: 0.01 to 10 µM

Question: For `O=C(Nc1ccc(-c2ccccc2)cc1)C1=C(O)CC(c2ccccc2)NC1=O` (centres unmarked) [compound 169], which IC50 is on record?
Answer: 0.01 to 10 µM

Question: Which IC50 does the source give for `N#Cc1ccc(-c2ccc(NC(=O)C3=C(O)C(Cc4ccccc4)NC3=O)cc2)cc1` (centres unmarked) [compound 66] here?
Answer: 0.01 to 10 µM

Question: For `O=C(Nc1ccc(Oc2ccccc2)cc1)C1=C(O)C(CCc2ccccc2)NC1=O` (centres unmarked) [compound 86], which IC50 is on record?
Answer: 0.01 to 10 µM

Question: How did the IC50 turn out when `O=C(Nc1cccc(Oc2ccccc2)c1)C1=C(O)C(CC2CCCCC2)NC1=O` (centres unmarked) [compound 49] was run?
Answer: 0.01 to 10 µM

Question: Which IC50 does the source give for `O=C(Nc1ccc(N2CCOCC2)cc1)C1=C(O)C(c2ccccc2)NC1=O` (centres unmarked) [compound 13] here?
Answer: 10 to 50 µM

Question: With `O=C(Nc1ccc(N2CCCCC2)cc1)C1=C(O)CC(Cc2ccccc2)NC1=O` (centres unmarked) [compound 174] as the molecule, how does the IC50 read?
Answer: 0.01 to 10 µM

Question: `O=C(Nc1ccc(C(F)(F)F)cc1)C1=C(O)CC(c2ccccc2)NC1=O` (centres unmarked) [compound 167] was tested. Which IC50 did it give?
Answer: 0.01 to 10 µM

Question: Which IC50 does the source give for `O=C(Nc1ccc(C2CCCCC2)cc1)C1=C(O)CC(c2ccccc2)NC1=O` (centres unmarked) [compound 164] here?
Answer: 0.01 to 10 µM

Question: Which IC50 does the source give for `O=C(Nc1ccc(Nc2ccccc2)cc1)C1=C(O)C(CC2CCCCC2)NC1=O` (centres unmarked) [compound 103] here?
Answer: 0.01 to 10 µM

Question: With `CC(C)CC1NC(=O)C(C(=O)Nc2ccc(-c3ccccc3)cc2)=C1O` (centres unmarked) [compound 81] as the molecule, how does the IC50 read?
Answer: 0.01 to 10 µM

Question: Which IC50 does the source give for `O=C(Nc1ccc(N2CCCCC2)cc1)C1=C(O)C(CCc2ccccc2)NC1=O` (centres unmarked) [compound 143] here?
Answer: 0.01 to 10 µM

Question: For `O=C(Nc1ccc(C2CCCCC2)cc1)C1=C(O)C(c2ccccc2)NC1=O` (centres unmarked) [compound 116], which IC50 is on record?
Answer: 0.01 to 10 µM

Question: `O=C(Nc1ccc(N2CCCCC2)cc1)C1=C(O)C(c2ccccc2)NC1=O` (centres unmarked) [compound 7] was tested. Which IC50 did it give?
Answer: 0.01 to 10 µM

Question: How did the IC50 turn out when `CC(C)CC1NC(=O)C(C(=O)Nc2ccc(Oc3ccccc3)cc2)=C1O` (centres unmarked) [compound 123] was run?
Answer: 0.01 to 10 µM
